In the NIST ThermoML archive (doi:10.1021/je3011979):
Numbers after ± are expanded uncertainties.

Assays:
[1] = excess molar enthalpy (molar enthalpy of mixing); xn = mol fraction of the nth substance listed; conditions: 291.15 K, 101 kPa, Liquid, Calvet calorimetry
[2] = xn = mol fraction of the nth substance listed; conditions: 101 kPa, Liquid, Vibrating tube method

CCCOC(C)=O [propyl ethanoate] + CCCCCCC
[1]
Conditions	excess molar enthalpy [kcal/mol]
x1 = 0.0996	0.104 ± 0.00143
x1 = 0.2001	0.181 ± 0.00191
x1 = 0.2956	0.2392 ± 0.00215
x1 = 0.3852	0.2725 ± 0.00239
x1 = 0.4642	0.2849 ± 0.00239
x1 = 0.5309	0.2856 ± 0.00239
x1 = 0.588	0.2746 ± 0.00239
x1 = 0.638	0.2565 ± 0.00215
x1 = 0.656	0.25 ± 0.00215
x1 = 0.7113	0.2266 ± 0.00215
x1 = 0.7717	0.1936 ± 0.00191
x1 = 0.8326	0.153 ± 0.00167
x1 = 0.8942	0.104 ± 0.00167
x1 = 0.9501	0.054 ± 0.00143

[2]
Conditions	mass density [kg/m3]
291.15 K, x1 = 0.0086	686.6 ± 0.3
291.15 K, x1 = 0.032	690.1 ± 0.3
291.15 K, x1 = 0.0864	698.2 ± 0.3
291.15 K, x1 = 0.1706	711.3 ± 0.3
291.15 K, x1 = 0.2573	725.7 ± 0.3
291.15 K, x1 = 0.3308	738.6 ± 0.3
291.15 K, x1 = 0.3974	750.9 ± 0.3
291.15 K, x1 = 0.4644	763.7 ± 0.3
291.15 K, x1 = 0.5398	778.9 ± 0.3
291.15 K, x1 = 0.6055	792.8 ± 0.3
291.15 K, x1 = 0.6723	807.4 ± 0.3
291.15 K, x1 = 0.7257	819.6 ± 0.3
291.15 K, x1 = 0.8	837.2 ± 0.3
291.15 K, x1 = 0.8457	848.5 ± 0.4
291.15 K, x1 = 0.9057	864 ± 0.4
291.15 K, x1 = 0.9708	881.6 ± 0.4
291.15 K, x1 = 1	889.6 ± 0.2
298.15 K, x1 = 0.0149	681.8 ± 0.3
298.15 K, x1 = 0.0308	684 ± 0.3
298.15 K, x1 = 0.0953	693.5 ± 0.3
298.15 K, x1 = 0.168	704.8 ± 0.3
298.15 K, x1 = 0.2358	715.8 ± 0.3
298.15 K, x1 = 0.3084	728.2 ± 0.3
298.15 K, x1 = 0.375	740.2 ± 0.3
298.15 K, x1 = 0.4386	752.1 ± 0.3
298.15 K, x1 = 0.5062	765.3 ± 0.3
298.15 K, x1 = 0.5643	777.2 ± 0.3
298.15 K, x1 = 0.6488	795.2 ± 0.3
298.15 K, x1 = 0.6684	799.5 ± 0.3
298.15 K, x1 = 0.7446	816.9 ± 0.3
298.15 K, x1 = 0.793	828.4 ± 0.3
298.15 K, x1 = 0.8688	847.3 ± 0.4
298.15 K, x1 = 0.91	858 ± 0.4
298.15 K, x1 = 0.9508	868.8 ± 0.4
298.15 K, x1 = 1	882.5 ± 0.2
318.15 K, x1 = 0.0291	666.1 ± 0.3
318.15 K, x1 = 0.0843	673.9 ± 0.3
318.15 K, x1 = 0.1595	685.1 ± 0.3
318.15 K, x1 = 0.23	696.3 ± 0.3
318.15 K, x1 = 0.2972	707.3 ± 0.3
318.15 K, x1 = 0.3638	718.8 ± 0.3
318.15 K, x1 = 0.4295	730.8 ± 0.3
318.15 K, x1 = 0.4902	742.3 ± 0.3
318.15 K, x1 = 0.553	754.6 ± 0.3
318.15 K, x1 = 0.6057	765.4 ± 0.3
318.15 K, x1 = 0.6734	779.8 ± 0.3
318.15 K, x1 = 0.726	791.4 ± 0.3
318.15 K, x1 = 0.7727	802.1 ± 0.3
318.15 K, x1 = 0.7949	807.7 ± 0.3
318.15 K, x1 = 0.8645	824.4 ± 0.3
318.15 K, x1 = 0.9242	839.3 ± 0.4
318.15 K, x1 = 1	859.8 ± 0.2
328.15 K, x1 = 0.0373	658.5 ± 0.3
328.15 K, x1 = 0.0866	665.4 ± 0.3
328.15 K, x1 = 0.1645	676.8 ± 0.3
328.15 K, x1 = 0.2401	688.6 ± 0.3
328.15 K, x1 = 0.3096	700 ± 0.3
328.15 K, x1 = 0.3783	711.8 ± 0.3
328.15 K, x1 = 0.4478	724.3 ± 0.3
328.15 K, x1 = 0.5142	736.8 ± 0.3
328.15 K, x1 = 0.5756	748.9 ± 0.3
328.15 K, x1 = 0.6377	761.7 ± 0.3
328.15 K, x1 = 0.6884	772.5 ± 0.3
328.15 K, x1 = 0.756	787.5 ± 0.3
328.15 K, x1 = 0.8074	799.5 ± 0.3
328.15 K, x1 = 0.856	811.2 ± 0.3
328.15 K, x1 = 0.9097	824.7 ± 0.4
328.15 K, x1 = 0.9638	838.7 ± 0.4
328.15 K, x1 = 1	848.3 ± 0.2
